Measurements published in patent publication US20100016172A1, “Nucleic acid binding assay materials and methods” (priority 2007, published 2010).
Where two headings read alike, the source gives them in different places. Values belong to the molecule of their own block, whether it stands above or below them.

Key:
Consensus hairpin DNA = assay: Piper electrophoretic mobility shift assay; format: binding; settings: 5 μM of PIPER
Procedure: (§1) The dotted line represents residues that are disordered in the crystal structure. The Exd residue R2C, is the unstructured amino acid to which the Cy3 dye is attached. […] The G-rich DNA in the absence of Exd has a band (bottom arrow), which is higher than the Consensus DNA shift with Exd and polyamide.
(§2) Piper Electrophoretic Mobility Shift Assay (FIG. 6D). The G-rich and Consensus hairpin DNA (same DNA as used in Hairpin Induction for EMSA) were incubated with increasing PIPER (Humphrey, W., Dalke, A. & Schulten, K. (1996) J. Mol. Graphics 14, 33-38) concentrations. PIPER final concentrations were […]. The gels were run and processed as above using an 8% acrylamide/3% glycerol gel with 0.5×TBE.

G-rich hairpin DNA [1] = assay: Piper electrophoretic mobility shift assay; format: binding; settings: 5 μM of PIPER
Procedure: as §1, §2

[2] = test system: 8-position sequence variation DNA hairpin target array; assay: CSI array binding assay of PA1 (Cy3 fluorescence intensity)
Text: Hairpin Target CSI Microarray. Each hairpin target was composed of a central permuted 8 base pair region with X^1 with a three base pair CGC sequence anchor region flanking either end, with a complementary sequence on X^2. A fluorescently tagged nucleic acid binding assay molecule was applied to the microarray to generate the nucleic acid binding profile for that assay molecule. Analysis of the array signal intensity gives rise to a reference grid showing the binding intensity output for the array. High intensity features indicate tight binding of the assay molecule to that specific target sequence.
Binding Assay: Microarray slides were immersed in 1×PBS (Phosphate Buffered Saline) and placed in a 90° C. water bath for 30 minutes to induce hairpin formation of the oligonucleotides. Slides were then transferred to a tube of non-stringent wash buffer (Saline-Sodium Phosphate-EDTA Buffer, 0.01% v/v Tween-20) and scanned to check for low background (<200 intensity). Microarrays were scanned using a ScanArray 5000 and the image files extracted with GenePix Pro version 3.0.
Polyamide binding: Microarrays prepared as above were placed in the microarray hybridization chamber and washed twice with non-stringent wash buffer. Polyamide was diluted to 5 nM in Hyb buffer (100 mM MES, 1 M NaCl, 20 mM EDTA, 0.01% v/v Tween-20). Polyamide (5 nM) was then added to the hybridization chamber and incubated at room temperature overnight (16 hours). Finally, the microarrays were washed twice with non-stringent wash buffer and scanned.
The array-to-array variability was very low with an average correlation coefficient of 0.88 (FIG. 4A). […] The duplicate features within an array and replicate features between arrays were averaged together to give finalized intensities. These averaged intensities were then converted into Z-scores [z=signal−meant/standard deviation] to reflect the signal-to-noise ratio.
Data Processing: For each replicate, global mean normalization was used to ensure the mean intensity of each microarray was the same. Local mean normalization (Colantuoni, C., Henry, G., Zeger, S. & Pevsner, J. (2002) Bioinformatics 18, 1540-1541) was then used to ensure the intensity was evenly distributed throughout each sector of the microarray surface. Outliers between replicate features were detected using the Q-test at 90% confidence and filtered out. The replicates were then quantile normalized (Bolstad, B. M., Irizarry, R. A., Astrand, M. & Speed, T. P. (2003) Bioinformatics 19, 185-193) in order to account for any possible non-linearity between arrays. Duplicate features were then averaged together. The median of the averaged features was subtracted to account for background.
Z-scores were calculated as |signal−median|/standard deviation. Due to the right-handed tail effect, standard deviation of the background signal was based upon the standard deviation from the median of all signals less than the median. The relationship of Z-score to P-value can be found in Table 1, below. Motifs were then found by running several motif finding algorithms (Bailey, T. L. & Elkan, C. (1994) Proc. of the 2nd Intl. Conference on Intelligent Systems for Mol. Biol., AAAI Press, Menlo Park, Calif., 28-36; Hughes, J. D., Estep, P. W., Tavazoie, S. & Church, G. M. (2000) J. Mol. Biol. 296, 1205-1214; Liu, X. S., Brutlag, D. L. & Liu, J. S. (2002) Nat. Biotechnol. 20, 835-839) on sequences in the highest Z-score bin. Logos (Schneider, T. D. & Stephens, R. M. (1990) Nucl. Acids Res. 18, 6097-6100) of each motif were then created by using sequences from the highest Z-score bin that contained the motif.

[3] = test system: DNA cognate sites (sequences used in the footprints); settings: footprinting, cited from earlier work
DNA hairpin target array = assay: CSI array binding assay of Cy3-labeled Exd alone or with polyamide-peptide conjugates; settings: for Motifs emerging from polyamide-Exd CSI data: in addition to G-stretches, Exd 20 nM, polyamide 50 nM
Procedure: Protein Binding: The microarrays were washed with 150 mM K-glutamate, 50 mM HEPES pH 7.5, 5% glycerol (reaction buffer), for 5 minutes. […] This solution was added to the hybridization chamber and incubated for 30 minutes. Subsequently, the microarrays were washed with reaction buffer and scanned.
To determine the sequence specificity of Exd, we labeled it with Cy3 at a unique cysteine residue on an unstructured portion of the protein (FIG. 6) (Passner, J. M., Ryoo, H. D., Shen, L., Mann, R. S. & Aggarwal, A. K. (1999) Nature 397, 714-719).
Array design for Hox/Exd Cooperative Binding Assay. The duplex DNA sequences are designed as self-complementary palindromes interrupted at the center by a TCCT sequence to facilitate the formation of DNA hairpins (FIG. 7). The 34 residue oligonucleotide is synthesized directly on the glass surface using a maskless array synthesizer (Singh-Gasson, S., Green, R. D., Yeu, Y., Nelson, C., Blattner, F., Sussman, M. R., Cerrina, F. (1999) Nat. Biotechnol. 17, 974-978) that can readily create up to 786,000 spatially resolved features. The unimolecular construction of duplex DNA allows the array to be reused several times without appreciable loss of information. After inducing hairpin formation, we find that greater than 95% of the oligonucleotides in the array form duplexes. In our hairpin design, we added three constant base pairs on either side of the 8 base pairs that were permuted (N′-8).
PA2 and PA3 (ImImPy*Py-γ-ImPyPyPy-β-Dp) are designed to target the sequence 5′-WGWCCW-3′. […] PA2 and PA3 differ solely by a single methylene in the linker connecting the Exd binding peptide to the polyamide (FIG. 8A) (Hauschild, K. E., Metzler, R. E., Arndt, H. D., Moretti, R., Raffaelle, M., Dervan, P. B., Ansari, A. Z. (2005) Proc. Natl. Acad. Sci. U.S.A. 102, 5008-5013). Since these polyamides are not fluorescently labeled, we detect cognate sites bound cooperatively by synthetic Hox mimics and Exd, as well as sites bound by Exd alone.
The raw array data for the above experiments were treated as described in Example 2. […] The Exd binding motif is 5′-NGAN-3′, which is consistent with the structural and genetic studies of Hox-Exd cognate sites (White, R. A., Aspland, S. E., Brookman, J. J., Clayton, L. & Sproat, G. (2000) Mech. Dev. 91, 217-226). In other words, the 5′-GA-3′ dinucleotide is the only required sequence determinant for Exd binding to DNA. Remarkably, the array identified the differences in the arrangement of polyamide and Exd binding sites due to ˜1.25 Å difference in the linker length between PA2 and PA3 (FIG. 8C). The other important result that emerges is that cooperative ternary assembly with Exd stabilizes binding of synthetic Hox mimics to truncated sites (5′-WGWC-3′). This is often seen in nature, where cooperative assembly of transcription factors utilizes sub-optimal binding sites to ensure that only a higher order complex can efficiently bind to a regulatory element (Thanos, D. & Maniatis, T. (1996) Methods Enzymol. 274, 162-173; Ptashne, M. & Gann, A. Genes and Signals. (2002) CSHL Press, New York).

[4] = target: T1, Extradenticle (Exd) homeodomain (Drosophila melanogaster, UniProt P40427 SEQ:1-63); assay: EMSA; 100 nM Exd; band completely shifted; polyamide has no effect; K-glutamate 150 mM, HEPES pH 7.5; settings: tags: none stated for EMSA; label: 32P; hairpin design; likely G-quadruplex
T1 sequence: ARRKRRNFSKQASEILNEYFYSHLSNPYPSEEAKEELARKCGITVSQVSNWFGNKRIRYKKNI
Procedure: Electrophoretic Mobility Shift Assays: 40mer DNA sequences labeled with ³²P (as per standard methods) were used in all reactions. Reactions were performed in a buffer composed of 150 mM Potassium Glutamate, 50 mM HEPES pH=7.5, 2 mM DTT, 100 ng/μL of BSA, 10% DMSO, and 10% glycerol. For the binding tests, polyamide-peptide conjugates (50 nM final concentration) and ³²P-DNA were incubated together for 30 minutes at 4° C. Exd was then added to bring the reaction volume to 20 μL. Exd final concentrations were 0.033, 0.1, 0.33, 1, 3.3, 10, 33, and 100 nM. These reactions were incubated at 4° C. for 1 hour and then 15 μL was loaded onto a pre-run 10% acrylamide/3% glycerol gel (1×TBE).
(§3) Hairpin Induction for Electrophoretic Mobility Shift Assay (Supplementary Figure S4B). Hairpin DNA was formed by heating synthesized ssDNA to 95° C. for 5 minutes and then rapidly cooling them on ice. The 34mer DNA […] were then labeled with ³²P (as per standard methods). For the hairpin electrophoretic mobility shift assays the concentrations of polyamide used were 50 nM, and Exd was present at a concentration of 100 nM. The reactions were performed in the above buffer and the gels were then run as before with the following exceptions: the gels were 8% acrylamide/3% glycerol gel with 0.5×TBE.

G-rich hairpin DNA [5] = assay: Hairpin electrophoretic mobility shift assay with Exd and polyamide; format: binding; settings: upon addition of Exd (100 nM)
Procedure: as §1
as §3, with “^32P” for “³²P”

Motifs emerging from polyamide-Exd CSI data (DNA hairpin target array): three clear motifs
Molecule: ImImPy*Py-γ-ImPyPyPy-β-Dp [PA2]

Motifs emerging from polyamide-Exd CSI data (DNA hairpin target array): only two of those motifs
Molecule: ImImPy*Py-γ-ImPyPyPy-β-Dp [PA3]

Exd binding motif (DNA hairpin target array; Cy3-labeled Exd with PA2 or PA3): 5′-NGAN-3′ | Sequence-specific binding (DNA hairpin target array; Exd alone, 0.2-200 nM): little sequence-specific binding
B1: Exd: transcription factor essential in Drosophila development; used Cy3-labeled (Exd R2C, residues 1-88) on the array (protein, UniProt P40427 1-88, looked up, fragment)
chain: MEDPNRMLAHTGGMMAPQGYGLSGQDDGQNAGSENEVRKQKDIGEILQQIMSISEQSLDEAQARKHTLNCHRMKPALFSVLCEIKEKT
modifications: Cy3 label
notes: transcription factor essential in Drosophila development; used Cy3-labeled (Exd R2C, residues 1-88) on the array
Sequence preference (DNA hairpin target array; Exd alone): unexpected preference for stretches of consecutive G-residues | Band shift of G-rich DNA (G-rich hairpin DNA [5]): completely shifted

Continued, molecule first:

Molecule: O=C1c2ccc3c4ccc5c6c(ccc(c7ccc(c2c37)C(=O)N1CCN1CCCCC1)c64)C(=O)N(CCN1CCCCC1)C5=O [PIPER, N,N-Bis[2-(1-piperidino)ethyl]-3,4,9,10-perylenetetracarboxylic diimide]
Aggregation of DNA (immobility from the well) (Consensus hairpin DNA): does not | Aggregation of DNA (immobility from the well) (G-rich hairpin DNA [1]): significant aggregation

Molecule: ImPy*PyPy-γ-ImPyPyPy-β-Dp [PA1]
Intensity ([2]; Data Point A, average of all features containing ATGTACAT): 19715 | Intensity ([2]; Data Point B, average of all features containing AGTACT): 10952 | Intensity ([2]; Data Point C, average of all features containing ATCTACAT): 3035.5 | Intensity ([2]; Data Point D, average of all features containing ATATACAT): 2073.25 | Intensity ([2]; Data Point E, average of all features containing ATGTATTT): 1426.5 | Intensity relative to other permutations of the consensus sequence ([2]; all sequences containing 5′-WWGATCWW-3′): significantly lower intensities | Effect of substitution on binding ([2]; double substitution at positions 3 and 6 to W (A/T stretch)): retains its ability to bind PA1 | Effect of substitution on binding ([2]; replacing one of the S residues at positions 6 (or 3′) with a W): significantly attenuates, but does not abolish binding | Effect of substitution on binding ([2]; substituting an S (G or C) at position 8): only subtly decreases binding | Effect of substitution on binding ([2]; substituting any other position that prefers a W with an S residue): nearly abolishes binding | Ka ([3]; Data Point A, sequence ATGTACAT): 70 10^9 M^−1 | Ka ([3]; Data Point B, sequence AGTACT): 37 10^9 M^−1 | Ka ([3]; Data Point C, sequence ATCTACAT): 3.2 10^9 M^−1 | Ka ([3]; Data Point D, sequence ATATACAT): 2.8 10^9 M^−1 | Ka ([3]; Data Point E, sequence ATGTATTT): 0.41 10^9 M^−1

Molecule: CGCCCCCCCCCCGCTCCTGCGGGGGGGGGGCGTTTT (structured_DNA) [G-rich hairpin DNA]
binding result [4]: binds
